According to patent US8829014B2, “Thiazole and thiophene analogues, and their use in treating autoimmune diseases and cancers” (Board of Supervisors of Louisiana State University and …, priority 2006, dated 2014):
Where two headings read alike, the source gives them in different places.

Tests used:
NF-κB [1] = experiment: NF-κB inhibitor screen: basal NF-κB-dependent luciferase expression in HEK/NF-κB cell line; assay type: cell-based; settings: 1 uM, determined as described in Example 398; for inhibition at 1 µM: read-out: NFkB inhibition @ 1 uM
Description: Development of NF-κB and AP-1 Screens: Two HEK293 cell lines were purchased from Panomics. One cell line was stably transfected with a plasmid in which luciferase expression is regulated by six copies of the NF-κB transcriptional element (5′-[…]-3′); and the other cell line was stably transfected with a plasmid in which luciferase expression is regulated by three copies of the AP-1 transcriptional element (TGACTAA). To test the biological activity of the promoters, the HEK/NF-κB cell line was stimulated with TNF-α (20 ng/ml) for 24 hours, and the HEK/AP-1 cell line was stimulated with PMA (10 ng/ml) for 24 hours. […] In addition, a pyrimidine carboxyimide that had previously been shown (ref. 58) to be an inhibitor of transcription mediated by NF-κB and AP-1 reduced luciferase activity by approximately 40% in each of the NF-κB and AP-1 cell lines.
The above two assays analyzed the effects of the compounds on post-transcriptional gene regulation, which is known to play a key role in cancer and inflammation. By contrast, the NF-κB assay and the following assay (AP-1) test whether the compounds act at the transcriptional level. Thirty-nine representative compounds were screened in an HEK/NF-κB cell line. HEK cells were stably transfected with a plasmid expressing luciferase under the control of the NF-κB promoter. These transfected cells were plated on a 96-well plate. As above, initial screening was carried out at 1.0 μM by adding compound in DMSO (0.3%) twenty-four hours after plating. Each compound was added to each of triplicate wells. DMSO (0.3%) was added to one set of wells as a control. Luciferase activity was determined using Promega's Brite-Glo kit, and the mean for each sample was normalized to that for DMSO.
The fourteen representative compounds identified in the eIF4E screen as interesting (Numbered 2, 3, 4, 6, 8, 11, 15, 20, 21, 24, 25, 32, 33, and 35) were then tested for luciferase activity in a six-point dose response (10 nM, 33 nM, 100 nM, 330 nM, 1000 nM, and 3300 nM). Screening was carried out as described above by monitoring the effects of the compounds on basal NF-κB-dependent luciferase expression. Each dose was used out in triplicate, and repeated between two and four times. Results were normalized by the average expression level at the lowest concentration level, as described above.

AP-1 [2] = experiment: AP-1 inhibitor screen: basal AP-1-dependent luciferase expression in HEK/AP-1 cell line; assay type: cell-based; settings: 1 uM, determined as described in Example 398; for inhibition at 1 µM: AP1
Description: Development of NF-κB and AP-1 Screens: Two HEK293 cell lines were purchased from Panomics. One cell line was stably transfected with a plasmid in which luciferase expression is regulated by six copies of the NF-κB transcriptional element (5′-[…]-3′); and the other cell line was stably transfected with a plasmid in which luciferase expression is regulated by three copies of the AP-1 transcriptional element (TGACTAA). To test the biological activity of the promoters, the HEK/NF-κB cell line was stimulated with TNF-α (20 ng/ml) for 24 hours, and the HEK/AP-1 cell line was stimulated with PMA (10 ng/ml) for 24 hours.
HEK cells were stably transfected with a plasmid expressing luciferase under the control of the AP-1 promoter. The transfected cells were plated on a 96-well plate for 24 hr. Then 1.0 μM of each compound in DMSO (0.3%) was added to triplicate wells and incubated for 48 hr. DMSO (0.3%) was added to one set of triplicate wells as a control. Luciferase activity was determined using Promega's Brite-Glo kit, and the mean for each sample was normalized to that for DMSO.
Screening was carried out as described above, monitoring the compounds' effects on basal AP-1-dependent luciferase expression. Each dose-response experiment was carried out in triplicate and repeated between two and four times.

carageenan-induced edema = experiment: Carrageenan-induced rat paw edema test (anti-inflammatory activity); assay type: in vivo, Sprague-Dawley rats; parameters: % Protection: concentration or dose not given beside the values; settings: for inhibition in vivo at 50 mg/kg: po, 3 h
Procedure, shortened: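 Sprague-Dawley rats (male and female, 150-250 g), fasted 18 h, given compound orally at 50 mg/kg in 0.1% sodium CMC (alternatively i.v., s.c. or i.p.). 1% carrageenan injected sub-plantar in right hind paw 1 h later. Paw displacement read again 3 h later; % protection = [(Control−Test)/Control]×100 versus saline control.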

NF-κB [3] = experiment: TNF-α-induced NF-κB-dependent luciferase expression in HEK cells; assay type: cell-based; settings: luciferase in HEK/NF-κB cells, as described in Example 398; for inhibition at 1 µM: Homo sapiens, HEK293, 1 uM, read-out: NFkB inhibition @ 1 uM
AP-1 [4] = experiment: PMA-induced AP-1 luciferase expression in HEK cells; assay type: cell-based; settings: luciferase in HEK/AP-1 cells, as described in Example 398; for inhibition at 1 µM: AP1, 1 uM
[5] = Rattus norvegicus, carrageenan-induced rat paw edema, defined in Example 397, read-out: % Protection
[6] = Rattus norvegicus, rat paw edema, 50 mg/kg, reading 3 hours after carrageenan, [(Control−Test)/Control]×100%, read-out: % Protection P

| Compound | inhibition at 1 µM (NF-κB [3]) [%] | inhibition at 1 µM (AP-1 [4]) [%] | inhibition in vivo at 50 mg/kg (carageenan-induced edema; [6]) [%] | further results |
| --- | --- | --- | --- | --- |
| CCOC(=O)Nc1nc(-c2ccccc2)c(-c2nc3ccccc3c(=O)n2-c2ccc(C)cc2)s1 [Example 193, [5-(4-Oxo-3-p-tolyl-3,4-dihydro-quinazolin-2-yl)-4-phenyl-thiazol-2-yl]-carbamic acid ethyl ester] |  |  |  | inhibition at 1 µM (NF-κB [1]): 2%; inhibition at 1 µM (AP-1 [2]): 11%; inhibition in vivo at 50 mg/kg (carageenan-induced edema; [5]): 31% |
| 2-[2-(1-Furan-2-yl-vinylamino)-4-phenyl-thiazol-5-yl]-3-(4-acetyl-phenyl)-3H-quinazolin-4-one [Example 270] |  |  |  | NFkB inhibition @ 1 uM (NF-κB [1]): 11; AP-1 inhibition @ 1 uM (AP-1 [2]): 18; % Protection (carageenan-induced edema; carrageenan-induced rat paw edema, defined in Example 397): 20% |
| CCOC(=O)Nc1nc(-c2ccccc2)c(-c2nc3ccccc3c(=O)n2-c2ccccc2C)s1 [Example 171, [5-(4-Oxo-3-o-tolyl-3,4-dihydro-quinazolin-2-yl)-4-phenyl-thiazol-2-yl]-carbamic acid ethyl ester] |  |  |  | inhibition at 1 µM (NF-κB [1]): 23%; inhibition at 1 µM (AP-1 [2]): 52%; inhibition in vivo at 50 mg/kg (carageenan-induced edema; [5]): 52% |
| Cc1ccccc1-n1c(-c2sc(Nc3ccccc3)nc2C)nc2ccccc2c1=O [Example 169, 2-(4-Methyl-2-phenylamino-thiazol-5-yl)-3-o-tolyl-3H-quinazolin-4-one] |  |  |  | inhibition at 1 µM (NF-κB [1]): 21%; inhibition at 1 µM (AP-1 [2]): 60%; inhibition in vivo at 50 mg/kg (carageenan-induced edema; [5]): 42% |
| CNc1nc(-c2ccccc2)c(-c2nc3ccccc3c(=O)n2-c2ccc(Cl)cc2)s1 [Example 251, 2-(2-Methylamino-4-phenyl-thiazol-5-yl)-3-(4-Chloro-phenyl)-3H-quinazolin-4-one] |  |  |  | inhibition at 1 µM (NF-κB [1]): 85%; inhibition at 1 µM (AP-1 [2]): 69%; inhibition in vivo at 50 mg/kg (carageenan-induced edema; carrageenan-induced rat paw edema, defined in Example 397, read-out: % Protection): 92% |
| {5-[3-(3-Methoxy-phenyl)-4-oxo-3,4-dihydro-quinazolin-yl]-thiazol-2-yl}-carbamic acid ethyl ester [Example 209] |  |  |  | NFkB inhibition @ 1 uM (NF-κB [1]): 29; AP-1 inhibition @ 1 uM (AP-1 [2]): 5 |
| COc1ccc(-n2c(-c3sc(NC(=O)c4ccc(C)cc4)nc3-c3ccccc3)nc3ccccc3c2=O)cc1 [Example 223, 4-Methyl-N-[5-(4-oxo-3-(4-methoxyphenyl)-3,4-dihydroquinazolin-2-yl)-4-phenyl-thiazol-2-yl]-benzamide] |  |  |  | inhibition at 1 µM (NF-κB [1]): -24%; inhibition at 1 µM (AP-1 [2]): -28% |
| CCOC(=O)Nc1nc(C)c(-c2nc3ccccc3c(=O)n2-c2ccccc2C)s1 [Example 166, [4-Methyl-5-(4-oxo-3-o-tolyl-3,4-dihidro-quinazolin-2-yl)-thiazol-2-yl]-carbamic acid ethyl ester] |  |  |  | NFkB inhibition @ 1 uM (NF-κB [1]): 21; AP-1 inhibition @ 1 uM (AP-1 [2]): 14 |
| COC(=O)Nc1nc(-c2ccccc2)c(-c2nc3ccccc3c(=O)n2-c2ccc(C(C)=O)cc2)s1 [Example 265, [5-(4-Oxo-3-(4-acetyl-phenyl)-3,4-dihidro-quinazolin-2-yl)-4-phenyl-thiazol-2-yl]-carbamic acid methyl ester] |  |  |  | NFkB inhibition @ 1 uM (NF-κB [1]): 0; AP-1 inhibition @ 1 uM (AP-1 [2]): 16 |
| Cc1ccc(Nc2nc(-c3ccccc3)c(-c3nc4ccccc4c(=O)n3-c3ccc(Cl)cc3)s2)cc1 [Example 257, 2-[2-(4-Methyl-phenylamino)-4-phenyl-thiazol-5-yl]-3-(4-Chloro-phenyl)-3H-quinazolin-4-one] |  |  |  | inhibition at 1 µM (NF-κB [1]): -10%; inhibition at 1 µM (AP-1 [2]): -51% |
| 2-[2-(1-Furan-2-yl-vinylamino)-4-phenyl-thiazol-5-yl]-3-(4-Chloro-phenyl)-3H-quinazolin-4-one [Example 255] |  |  |  | NFkB inhibition @ 1 uM (NF-κB [1]): 0; AP-1 inhibition @ 1 uM (AP-1 [2]): 7 |
| COc1ccc(C(=O)c2cc(-c3ccccc3)c(N3CCOCC3)s2)cc1 [Example 44, (4-Methoxy-phenyl)-(5-morpholin-4-yl-4-phenyl-thiophene-2-yl)-methanone] | 14.9 | 55.4 | 66.7 |  |
| Cc1ccc(C(=O)c2sc(Nc3ccc(Cl)cc3)nc2NC(=O)Nc2ccc(F)cc2)cc1 [Example 356, 1-[2-(4-Chloro-phenylamino)-5-(4-methyl-benzoyl)-thiazol-4-yl]-3-(4-fluoro-phenyl)-urea] | 54.6 | 48.4 | 69.5 |  |
| O=C(CCl)Nc1ccccc1C(=O)O [Example 139, 2-(2-Chloroacetylamino) benzoic acid] | 62.6 | 74.4 | 69.6 |  |
| COc1cccc(-n2c(-c3cc(-c4ccc(S(C)(=O)=O)cc4)c(N4CCOCC4)s3)nc3ccccc3c2=O)c1 [Example 300, 2-[4-(4-Methanesulphonyl-phenyl)-5-morpholin-4-yl-thiophen-2-yl]-3-(3-methoxy-phenyl)-3H-quinazolin-4-one] | 20 | -4 | 48 |  |
| COc1ccc(C(=O)c2cc(-c3ccc(Cl)cc3)c(N3CCOCC3)s2)cc1 [Example 80, [4-(4-Chloro-phenyl)-5-morpholin-4-yl-thiophen-2-yl]-(4-methoxy-phenyl)-methanone] | -2.91 | 30.6 | 18.9 |  |
| Cc1c(OCC(F)(F)F)ccnc1-c1sc(Nc2ccccc2)nc1N [Example 331, 5-[3-Methyl-4-(2,2,2-trifluoro-ethoxy)-pyridin-2-yl]-N2-phenyl-thiazole-2,4-diamine] | -10.6 | 27.4 | 62.3 |  |
| Cc1ccc(C(=O)c2cc(-c3ccccc3)c(N3CCOCC3)s2)cc1 [Example 43, (5-Morpholin-4-yl-4-phenyl-thiophen-2-yl)-p-tolyl-methanone] | -15.3 | 27.3 | 5.33 |  |
| COc1ccc(Nc2nc(N)c(C(=O)c3ccccn3)s2)cc1 [Example 351, ([4-Amino-2-(4-methoxy-phenylamino)-thiazol-5-yl]-pyridin-2-yl-methanone)] | -35.9 | 51.5 | 27 |  |
| COc1ccc(Nc2nc(N)c(C(=O)c3ccc(C)cc3)s2)cc1 [Example 344, ([4-Amino-2-(4-methoxy-phenylamino)-thiazol-5-yl]-p-tolyl-methanone)] | 49 | 70.3 | 79.8 |  |
| (5-Morpholin-4-yl-4-pyridin-3-yl-thiophene-2-yl)-phenyl-methanone [Example 90] |  |  |  | NFkB inhibition @ 1 uM (NF-κB [3]; 1 uM): 7.91; AP-1 inhibition @ 1 uM (AP-1 [4]; 1 uM): 59.49; % Protection P (carageenan-induced edema; rat paw edema, 50 mg/kg, reading 3 hours after carrageenan, [(Control−Test)/Control]×100%): 6.09% |
| O=C(c1ccc(Cl)cc1Cl)c1sc(N2CCN(C(=O)c3ccco3)CC2)nc1-c1ccccc1 [Example 384, (2,4-Dichloro-phenyl)-{2-[4-(furan-2-carbonyl)-piperazin-1-yl]-4-phenyl-thiazol-5-yl}-methanone] | -1.4 | 42.5 | 71.6 |  |
